This is an account of results in paper PMC12028158, “Synthesis and In Vitro Evaluation of the Anticancer Effect of Novel Phosphonium Vindoline Derivatives” (International Journal of Molecular Sciences, 2025).

For one data set, the system named is HeLa. Briefly: MTT antiproliferative assay. Conditions: Homo sapiens, HeLa, 72 h; for inhibition at 10 µM: read-out: Growth Inhibition (%) ± SEM; for inhibition at 30 µM: read-out: Growth Inhibition (%) ± SEM (converted). The class given is cell-based, human. Here is the method: (§1) The antiproliferative properties of the tested compounds were additionally determined using the MTT assay against a panel of human adherent cancer cell lines isolated from breast (MCF-7 and MDA-MB-231), cervical (HeLa and SiHa), and ovarian (A2780) tumors and also on the NIH/3T3 fibroblast cell line (Table 3). IC50 values were calculated from a wider concentration range (0.1–30 μM) when higher than 50% cell growth inhibition was obtained at 10 μM (Table 4). Cisplatin was used as a reference compound. […] The noncancerous fibroblast cell line NIH/3T3 was used to gather preliminary data regarding the cancer selectivity of vindolin derivatives. […] The tumor selectivity of compound 9g, expressed as the ratio of IC50 on cancer cells and fibroblasts, is substantially higher than that of cisplatin (Table 4).
(§2) The antiproliferative effects of the prepared derivatives were evaluated in vitro using the MTT assay against a panel of human adherent cancer cell lines, including breast (MDA-MB-231, MCF-7), cervical (SiHa, HeLa), and ovarian (A2780) cancer cells. The noncancerous fibroblast cell line NIH/3T3 was included to obtain data concerning the tumor selectivity of the test substances. All cell lines were sourced from the European Collection of Cell Cultures (Salisbury, UK), except for SiHa (American Tissue Culture Collection (Manassas, VA, USA). All cell lines were maintained in Eagle’s Minimal Essential Medium (EMEM) supplemented with 10% fetal bovine serum (FBS), 1% non-essential amino acids, and a mixture of penicillin, streptomycin, and amphotericin B. The cells were maintained in a humidified atmosphere containing 5% CO2 at 37 °C. The media and the cell culture supplements were procured from Capricorn Scientific Ltd. (Ebsdorfergrund, Germany). Cells were seeded into 96-well microplates at 5000/well and, the next day, treated with vindoline derivatives at two concentrations (10 or 30 μM) for 72 h under cell culturing conditions. […] When higher than 50% cell growth inhibition was observed, the assay was repeated using a wide concentration range (0.1–30 μM). The IC50 values were calculated using GraphPad Prism software 10.3.1 (GraphPad Software, San Diego, CA, USA). Two independent experiments were performed with at least five replicates per condition.

The test system of a further data set is A2780. Briefly: MTT antiproliferative assay. The format is cell-based, human. Conditions: Homo sapiens, 72 h; for inhibition at 10 µM: A2780, 10 μM; for inhibition at 30 µM: A2780, 30 μM, read-out: Growth Inhibition (%) ± SEM (converted). On the procedure: as §1, §2
A further data set relates to MDA-MB-231. Briefly: MTT antiproliferative assay. The format is cell-based, human. As to conditions: Homo sapiens, 72 h; for inhibition at 10 µM: MDA-MB-231, 10 μM; for inhibition at 30 µM: MDA-MB-231, 30 μM. Here is the method:
as §1, §2

The next data set relates to SiHa. The experiment in a line: MTT antiproliferative assay. As to conditions: SiHa, 72 h; for inhibition at 10 µM / inhibition at 30 µM: Homo sapiens. The class given is cell-based, human. Here is the method: as §1, §2
A general note: Tetrazolium assays rely on reduction of a dye to a coloured formazan, in cell work by metabolically active cells.

The test system of another data set is MCF-7. Briefly: MTT antiproliferative assay. The class given is cell-based, human. Conditions: Homo sapiens, MCF7, 72 h; for inhibition at 30 µM: MCF-7, 30 μM, read-out: Growth Inhibition (%) ± SEM (converted). On the procedure:
as §1, §2

Another data set relates to NIH/3T3 (fibroblast). The experiment in a line: MTT antiproliferative assay. The class given is cell-based. Conditions: Mus musculus, 72 h; for inhibition at 10 µM: NIH3T3, 10 μM, read-out: Growth Inhibition (%) ± SEM; for inhibition at 30 µM: NIH3T3, 30 μM, read-out: Growth Inhibition (%) ± SEM (converted). Here is the method:
as §1, §2

Data set [1] relates to panel of human adherent cancer cell lines. Briefly: MTT antiproliferative assay, whole cancer panel. The format is cell-based. As to conditions: for anticancer activity / cytotoxic effect (in words): MTT panel. Here is the method: as §1, §2
In data set [2] the test system is 60 human tumor cell lines (NCI60). The arrangement: method as in PMID 39063170. Conditions: previous work; cited from earlier work.
Where [3] appears, read: read-out: Growth Inhibition (%) ± SEM.
The mark [4] stands for this setting: read-out: Growth Inhibition (%) ± SEM (converted).
[5] abbreviates: heading: Growth Inhibition ± SEM.

“Also recorded” adds a separate entry of the source. Read-outs that look alike come from different tables or passages of the source. A value given as a limit tells only on which side of the number the result lay.

The term inhibition denotes the drop in the measured response relative to a control, in per cent. Turning to `CC[C@]12C=CCN3CC[C@@]4(c5cc(NC(=O)C[P+](c6ccccc6)(c6ccccc6)c6ccccc6)c(OC)cc5N(C)[C@H]4[C@@](O)(C(=O)OC)[C@@H]1OC(C)=O)[C@@H]32` [compound 16], the inhibition at 10 µM in the data set on HeLa was 21.7 ± 0.84%; in the data set with A2780 (setting [3]), 19.4 ± 0.64%; with MDA-MB-231 (setting [3]) it was 12.64 ± 0.03%; with SiHa (setting [3]), 15 ± 0.34%; in the data set with MCF-7 (MCF-7, 10 μM, read-out: Growth Inhibition (%) ± SEM), 31.1 ± 3.1%; in the data set with NIH/3T3 (fibroblast) it was 24.9 ± 0.78%. In addition, the inhibition at 30 µM was 30% with HeLa; 29.5% in the data set on A2780; 13.5% with MDA-MB-231 (setting [4]); 36.8% in the data set with SiHa (setting [4]); 47.1% with MCF-7; 27.5% in the data set with NIH/3T3 (fibroblast). The “anticancer activity / cytotoxic effect (in words)” value in data set [1] is given as “no cytotoxic effect; also recorded: no remarkable anticancer activity”.

Regarding `CCC12C=CCN3CCC4(c5ccc(OC)cc5N(C)C4C(O)(C(=O)OC)C1OC(=O)CCCBr)C32` (centres unmarked) [compound 7, 17-(O-4-bromobutanoyl)vindoline], the “antiproliferative effects (in words)” value in data set [2] is given as “do not exert antiproliferative effects”.

As to `CC[C@]12C=CCN3CC[C@@]4(c5ccc(OC)cc5N(C)[C@H]4[C@@](O)(C(=O)OC)[C@@H]1OC(=O)CC(c1ccccc1)(c1ccccc1)c1ccccc1)[C@@H]32` [compound 13, 17-(O-3,3,3-Triphenylpropanoyl)vindoline], the inhibition at 10 µM was 39.9 ± 2.57% with HeLa; under 10% in the data set with A2780 (setting [5]); under 10% in the data set with MDA-MB-231 (setting [5]); under 10% in the data set on SiHa (setting [5]); 26.1 ± 1.55% in the data set on NIH/3T3 (fibroblast). Moreover, the inhibition at 30 µM was 40.1% in the data set on HeLa; 11.9% in the data set with A2780; under 10% in the data set with MDA-MB-231 (setting [5]); under 10% in the data set with SiHa (setting [5]); 20.8% with MCF-7; 22.1% in the data set on NIH/3T3 (fibroblast). Further, in data set [1], the “anticancer activity / cytotoxic effect (in words)” value is on record as “no cytotoxic effect”. Further, the “antiproliferative effect (in words)” value in data set [1] (even at 30 μM) was “modest or negligible effect”.

Broadly, the IC50 is the concentration that gives 50% inhibition. As to `N.N.[Cl][Pt][Cl]` [Cisplatin, reference compound], the IC50 with SiHa (MTT, read-out: IC50 Value (μM) ± SEM) was found to be 15.5 ± 0.93 µM.

Take `CCC12C=CCN3CCC4(c5ccc(OC)cc5N(C)C4C(O)(C(=O)OC)C1O)C32` (centres unmarked) [compound 6, 17-desacetylvindoline]: the “antiproliferative effects (in words)” value in data set [2] is recorded as “do not exert antiproliferative effects”.
